Measurements taken from PubChem BioAssay AID2060910 (Molecular Pharmacology Branch, DTP, NCI, 2025).
Where “and” joins values, the source holds several entries; their conditions need not be identical. Equal entries are not always repeated.

Tested on: 242566-281-R-J2-PDC complex spheroid viability
Assay: Anticancer human tumor 242566-281-R-J2-PDC patient-derived pancreatic carcinoma cell line growth inhibition [RAS]
Settings: for viability, T/C: stronger effect = lower value
Summary of the method: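 Agents were tested in combination matrices in half-log decrements from a top concentration at or near clinical Cmax (10 microM if undetermined). Targets were multi-cell spheroids of tumour lines plus HUVEC and MSC stromal cells.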
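Further: spheroids exposed to compound for 7 days before readout.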
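Wherever viability, T/C is given: 100% = DMSO vehicle control wells.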

Q: For `CCc1c2c(nc3ccc(O)cc13)-c1cc3c(c(=O)n1C2)COC(=O)[C@]3(O)CC` + C#Cc1c(F)ccc2cc(O)cc(-c3ncc4c(N5CC6CCC(C5)N6)nc(OCC56CCCN5CC(F)C6)nc4c3F)c12, which IC50 (curve of first compound, second compound 0.0316 µM) is on record?
A: Its IC50 is 0.0316 µM.

Q: What about the IC50 (curve of first compound, second compound 0.1 µM) of the same molecule?
A: Its IC50 is 0.0241 µM.

Q: What about the IC50 (curve of first compound, second compound 0.316 µM) of the same molecule?
A: Its IC50 is 0.0151 µM.

Q: And the IC50 (curve of first compound, second compound 1 µM)?
A: The IC50 was 0.00664 µM.

Q: What about the IC50 (curve of first compound, second compound 3.16 µM) of the same molecule?
A: The IC50 was 0.0033 µM.

Q: And the IC50 (curve of first compound, second compound 10 µM)?
A: The IC50 was 0.00346 µM.

Q: What about the viability, T/C (second compound 0.0316 µM, first compound 0.000949 µM) of the same molecule?
A: Its viability, T/C is 100%.

Q: What about the viability, T/C (second compound 0.0316 µM, first compound 0.003 µM) of the same molecule?
A: The viability, T/C was 97.3%.

Q: And the viability, T/C (second compound 0.0316 µM, first compound 0.00949 µM)?
A: Its viability, T/C is 76.1%.

Q: And the viability, T/C (second compound 0.0316 µM, first compound 0.03 µM)?
A: Its viability, T/C is 51.3%.

Q: And the viability, T/C (second compound 0.0316 µM, first compound 0.0949 µM)?
A: The viability, T/C was 29.3%.

Q: What about the viability, T/C (second compound 0.0316 µM, first compound 0.3 µM) of the same molecule?
A: Its viability, T/C is 17.7%.

Q: What about the viability, T/C (second compound 0.1 µM, first compound 0.000949 µM) of the same molecule?
A: The viability, T/C was 74.1%.

Q: And the viability, T/C (second compound 0.1 µM, first compound 0.003 µM)?
A: The viability, T/C was 86.4%.

Q: And the viability, T/C (second compound 0.1 µM, first compound 0.00949 µM)?
A: Its viability, T/C is 70.2%.

Q: What about the viability, T/C (second compound 0.1 µM, first compound 0.03 µM) of the same molecule?
A: The viability, T/C was 44.9%.

Q: What about the viability, T/C (second compound 0.1 µM, first compound 0.0949 µM) of the same molecule?
A: The viability, T/C was 39.4%.

Q: And the viability, T/C (second compound 0.1 µM, first compound 0.3 µM)?
A: The viability, T/C was 31.7%.

Q: What about the viability, T/C (second compound 0.316 µM, first compound 0.000949 µM) of the same molecule?
A: The viability, T/C was 72.8%.

Q: What about the viability, T/C (second compound 0.316 µM, first compound 0.003 µM) of the same molecule?
A: Its viability, T/C is 74.9%.

Q: What about the viability, T/C (second compound 0.316 µM, first compound 0.00949 µM) of the same molecule?
A: The viability, T/C was 53%.

Q: And the viability, T/C (second compound 0.316 µM, first compound 0.03 µM)?
A: Its viability, T/C is 45%.

Q: And the viability, T/C (second compound 0.316 µM, first compound 0.0949 µM)?
A: The viability, T/C was 35.4%.

Q: What about the viability, T/C (second compound 0.316 µM, first compound 0.3 µM) of the same molecule?
A: The viability, T/C was 36%.

Q: What about the viability, T/C (second compound 1 µM, first compound 0.000949 µM) of the same molecule?
A: The viability, T/C was 59.3%.

Q: What about the viability, T/C (second compound 1 µM, first compound 0.003 µM) of the same molecule?
A: Its viability, T/C is 66%.

Q: And the viability, T/C (second compound 1 µM, first compound 0.00949 µM)?
A: Its viability, T/C is 44.3%.

Q: And the viability, T/C (second compound 1 µM, first compound 0.03 µM)?
A: Its viability, T/C is 36%.

Q: What about the viability, T/C (second compound 1 µM, first compound 0.0949 µM) of the same molecule?
A: Its viability, T/C is 29.5%.

Q: What about the viability, T/C (second compound 1 µM, first compound 0.3 µM) of the same molecule?
A: Its viability, T/C is 30.8%.

Q: What about the viability, T/C (second compound 3.16 µM, first compound 0.000949 µM) of the same molecule?
A: The viability, T/C was 56.3%.

Q: And the viability, T/C (second compound 3.16 µM, first compound 0.003 µM)?
A: Its viability, T/C is 50.6%.

Q: What about the viability, T/C (second compound 3.16 µM, first compound 0.00949 µM) of the same molecule?
A: Its viability, T/C is 40.8%.

Q: And the viability, T/C (second compound 3.16 µM, first compound 0.03 µM)?
A: Its viability, T/C is 32.7%.

Q: And the viability, T/C (second compound 3.16 µM, first compound 0.0949 µM)?
A: Its viability, T/C is 31.5%.

Q: And the viability, T/C (second compound 3.16 µM, first compound 0.3 µM)?
A: The viability, T/C was 30.4%.

Q: And the viability, T/C (second compound 10 µM, first compound 0.000949 µM)?
A: Its viability, T/C is 58.6%.

Q: What about the viability, T/C (second compound 10 µM, first compound 0.003 µM) of the same molecule?
A: The viability, T/C was 52.5%.

Q: What about the viability, T/C (second compound 10 µM, first compound 0.00949 µM) of the same molecule?
A: Its viability, T/C is 38.3%.

Q: And the viability, T/C (second compound 10 µM, first compound 0.03 µM)?
A: The viability, T/C was 41%.

Q: What about the viability, T/C (second compound 10 µM, first compound 0.0949 µM) of the same molecule?
A: The viability, T/C was 29.2%.

Q: And the viability, T/C (second compound 10 µM, first compound 0.3 µM)?
A: Its viability, T/C is 22.8%.

Q: What does the source list for `CC(C)n1nc(-c2ccc3oc(N)nc3c2)c2c(N)ncnc21` + CCn1c(-c2cc(N3CCN(C)CC3)cnc2C(C)OC)c2c3cc(ccc31)-c1csc(n1)CC(NC(=O)C1CC1C)C(=O)N1CCCC(N1)C(=O)OCC(C)(C)C2?
A: IC50 (curve of first compound, second compound 0.000949 µM): 0.0299 µM; IC50 (curve of first compound, second compound 0.003 µM): 0.00715 µM; IC50 (curve of first compound, second compound 0.00949 µM): < 0.000316 µM; IC50 (curve of first compound, second compound 0.03 µM): < 0.000316 µM; IC50 (curve of first compound, second compound 0.0949 µM): < 0.000316 µM; IC50 (curve of first compound, second compound 0.3 µM): < 0.000316 µM; viability, T/C (second compound 0.000949 µM, first compound 0.000316 µM): 81.6%; viability, T/C (second compound 0.000949 µM, first compound 0.001 µM): 91.5%; viability, T/C (second compound 0.000949 µM, first compound 0.00316 µM): 61.7%; viability, T/C (second compound 0.000949 µM, first compound 0.01 µM): 71.3%; viability, T/C (second compound 0.000949 µM, first compound 0.0316 µM): 48%; viability, T/C (second compound 0.000949 µM, first compound 0.1 µM): 27.4%; viability, T/C (second compound 0.003 µM, first compound 0.000316 µM): 75.8%; viability, T/C (second compound 0.003 µM, first compound 0.001 µM): 62.1%; viability, T/C (second compound 0.003 µM, first compound 0.00316 µM): 54.2%; viability, T/C (second compound 0.003 µM, first compound 0.01 µM): 48.7%; viability, T/C (second compound 0.003 µM, first compound 0.0316 µM): 40.9%; viability, T/C (second compound 0.003 µM, first compound 0.1 µM): 20.6%; viability, T/C (second compound 0.00949 µM, first compound 0.000316 µM): 48.5%; viability, T/C (second compound 0.00949 µM, first compound 0.001 µM): 38.4%; viability, T/C (second compound 0.00949 µM, first compound 0.00316 µM): 36.1%; viability, T/C (second compound 0.00949 µM, first compound 0.01 µM): 30.9%; viability, T/C (second compound 0.00949 µM, first compound 0.0316 µM): 28.2%; viability, T/C (second compound 0.00949 µM, first compound 0.1 µM): 15.8%; viability, T/C (second compound 0.03 µM, first compound 0.000316 µM): 28.5%; viability, T/C (second compound 0.03 µM, first compound 0.001 µM): 29.8%; viability, T/C (second compound 0.03 µM, first compound 0.00316 µM): 26.3%; viability, T/C (second compound 0.03 µM, first compound 0.01 µM): 19.1%; viability, T/C (second compound 0.03 µM, first compound 0.0316 µM): 11.9%; viability, T/C (second compound 0.03 µM, first compound 0.1 µM): 10.4%; viability, T/C (second compound 0.0949 µM, first compound 0.000316 µM): 21.5%; viability, T/C (second compound 0.0949 µM, first compound 0.001 µM): 18.4%; viability, T/C (second compound 0.0949 µM, first compound 0.00316 µM): 18.9%; viability, T/C (second compound 0.0949 µM, first compound 0.01 µM): 13.8%; viability, T/C (second compound 0.0949 µM, first compound 0.0316 µM): 7.41%; viability, T/C (second compound 0.0949 µM, first compound 0.1 µM): 6.96%; viability, T/C (second compound 0.3 µM, first compound 0.000316 µM): 18.5%; viability, T/C (second compound 0.3 µM, first compound 0.001 µM): 16.6%; viability, T/C (second compound 0.3 µM, first compound 0.00316 µM): 15.2%; viability, T/C (second compound 0.3 µM, first compound 0.01 µM): 11.5%; viability, T/C (second compound 0.3 µM, first compound 0.0316 µM): 7.41%; viability, T/C (second compound 0.3 µM, first compound 0.1 µM): 5.69%

Q: Which viability, T/C (compound 1 µM) does the source give for `CC1(O)CCCC1n1c(=O)c(C(F)F)cc2cnc(NC3CCN(S(C)(=O)=O)CC3)nc21` (configuration not stated) here?
A: Its viability, T/C is 106% [middle of 4 runs].

Q: What about the viability, T/C (compound 3.16 µM) of the same molecule?
A: Its viability, T/C is 105% and 103% (2×) and 123%.

Q: What about the IC50 (curve of compound) of the same molecule?
A: The IC50 was > 10 µM and 7.54 µM and 8.69 µM.
